Key:
[1] = xn = mol fraction of the nth substance listed; conditions: 101 kPa, Liquid; for speed of sound: Sing-around technique in a fixed-path interferometer; for mass density: Vibrating tube method
[2] = refractive index (Na D-line) (dimensionless); xn = mol fraction of the nth substance listed; conditions: 101 kPa, Liquid, Standard Abbe refractometry

c1ccc2c(c1)CCCC2 [1,2,3,4-tetrahydronaphthalene] + CCCCCCCCCC
Conditions | mass density, [1] [kg/m3] | refractive index, [2] | speed of sound, [1] [m/s]
293.15 K, x1 = 0.1008 | 747.8 | 1.4216 | 1269.3
293.15 K, x1 = 0.2034 | 766.8 | 1.4319 | 1285.2
293.15 K, x1 = 0.3 | 786.3 | 1.4422 | 1302.2
293.15 K, x1 = 0.401 | 807.5 | 1.4535 | 1320.2
293.15 K, x1 = 0.494 | 828.5 | 1.4648 | 1340.6
293.15 K, x1 = 0.5949 | 852.8 | 1.4778 | 1363.5
293.15 K, x1 = 0.7009 | 880.2 | 1.4925 | 1391.2
293.15 K, x1 = 0.7974 | 907 | 1.5071 | 1418.8
293.15 K, x1 = 0.8997 | 937.9 | 1.5239 | 1452.7
293.15 K, x1 = 1 | 969.5 | 1.5414 | 1489.5
303.15 K, x1 = 0.1008 | 740.2 | 1.4171 | 1230
303.15 K, x1 = 0.2034 | 759.1 | 1.4274 | 1246.1
303.15 K, x1 = 0.3 | 778.6 | 1.4376 | 1263.3
303.15 K, x1 = 0.401 | 799.8 | 1.449 | 1281.4
303.15 K, x1 = 0.494 | 820.8 | 1.4602 | 1301.9
303.15 K, x1 = 0.5949 | 845.1 | 1.4733 | 1324.9
303.15 K, x1 = 0.7009 | 872.4 | 1.488 | 1352.5
303.15 K, x1 = 0.7974 | 899.1 | 1.5026 | 1380.1
303.15 K, x1 = 0.8997 | 930 | 1.5193 | 1413.8
303.15 K, x1 = 1 | 961.6 | 1.5367 | 1450.1
313.15 K, x1 = 0.1008 | 732.6 | 1.4126 | 1191.3
313.15 K, x1 = 0.2034 | 751.5 | 1.4229 | 1207.6
313.15 K, x1 = 0.3 | 770.9 | 1.4331 | 1224.9
313.15 K, x1 = 0.401 | 792.1 | 1.4445 | 1243.1
313.15 K, x1 = 0.494 | 812.9 | 1.4556 | 1263.8
313.15 K, x1 = 0.5949 | 837.3 | 1.4688 | 1286.8
313.15 K, x1 = 0.7009 | 864.7 | 1.4835 | 1314.5
313.15 K, x1 = 0.7974 | 891.4 | 1.498 | 1342.1
313.15 K, x1 = 0.8997 | 922.1 | 1.5148 | 1375.5
313.15 K, x1 = 1 | 953.7 | 1.5321 | 1411.5
323.15 K, x1 = 0.1008 | 724.9 | 1.4081 | 1153.1
323.15 K, x1 = 0.2034 | 743.8 | 1.4183 | 1169.6
323.15 K, x1 = 0.3 | 763.2 | 1.4285 | 1187.1
323.15 K, x1 = 0.401 | 784.3 | 1.4399 | 1205.4
323.15 K, x1 = 0.494 | 805.2 | 1.4511 | 1226.2
323.15 K, x1 = 0.5949 | 829.5 | 1.4642 | 1249.3
323.15 K, x1 = 0.7009 | 856.8 | 1.479 | 1277.1
323.15 K, x1 = 0.7974 | 883.6 | 1.4933 | 1304.6
323.15 K, x1 = 0.8997 | 914.2 | 1.5102 | 1337.9
323.15 K, x1 = 1 | 945.7 | 1.5274 | 1373.6
333.15 K, x1 = 0.1008 | 717.2 | 1.4035 | 1115.5
333.15 K, x1 = 0.2034 | 736 | 1.4137 | 1132.1
333.15 K, x1 = 0.3 | 755.4 | 1.4238 | 1149.8
333.15 K, x1 = 0.401 | 776.5 | 1.4355 | 1168.2
333.15 K, x1 = 0.494 | 797.3 | 1.4463 | 1189.2
333.15 K, x1 = 0.5949 | 821.6 | 1.4597 | 1212.4
333.15 K, x1 = 0.7009 | 849 | 1.4744 | 1240.2
333.15 K, x1 = 0.7974 | 875.7 | 1.4887 | 1267.8
333.15 K, x1 = 0.8997 | 906.3 | 1.5055 | 1300.9
333.15 K, x1 = 1 | 937.8 | 1.5228 | 1336.4
343.15 K, x1 = 0.1008 | 709.3 | 1.3988 | 1078.4
343.15 K, x1 = 0.2034 | 728.2 | 1.4092 | 1095.2
343.15 K, x1 = 0.3 | 747.6 | 1.4192 | 1113.2
343.15 K, x1 = 0.401 | 768.7 | 1.4308 | 1131.6
343.15 K, x1 = 0.494 | 789.5 | 1.4418 | 1152.9
343.15 K, x1 = 0.5949 | 813.7 | 1.4549 | 1176.1
343.15 K, x1 = 0.7009 | 841.1 | 1.4697 | 1204.1
343.15 K, x1 = 0.7974 | 867.7 | 1.4841 | 1231.5
343.15 K, x1 = 0.8997 | 898.4 | 1.5008 | 1264.7
343.15 K, x1 = 1 | 929.8 | 1.518 | 1299.8

Reference: the NIST ThermoML archive (doi:10.1016/j.jct.2011.09.001)
